Reference: patent publication US3962427A, “Antibiotic nebramycin factor VII” (Eli Lilly and Company, priority 1974, dated 1976)

Experiments:
Pseudomonas species = conditions: cited from earlier work
Proteus vulgaris PR27 = assay: Agar dilution MIC, Antibiotic Spectrum of Nebramycin VII; type: cell-based
Pseudomonas cepacia 5629 = assay: as above; type: cell-based
[1] = test system: Staphylococcus aureus 3055; assay: as above; conditions: Staphylococcus aureus 3055, Penicillin G sensitive strain
[2] = test system: Pseudomonas aeruginosa PI1; assay: as above; type: cell-based
[3] = test system: Pseudomonas aeruginosa PI24; assay: as above; type: cell-based
Enterobacter cloacae EB5 = assay: as above; type: cell-based
[4] = test system: Streptococcus sp. (group D) 9901; assay: as above; type: cell-based
Proteus mirabilis PR11 = assay: as above; type: cell-based
[5] = test system: Pseudomonas aeruginosa PS10; assay: as above; type: cell-based
[6] = test system: Enterobater aerogenes EB2; assay: as above; type: cell-based
[7] = test system: Staphylococcus aureus 3130; assay: as above; conditions: Staphylococcus aureus 3130, Methicillin resistant strain
Serratia marcescens SE3 = assay: as above; type: cell-based
gram negative organisms = assay: Antibacterial activity of nebramycin VII in words; type: cell-based
[8] = test system: Pseudomonas maltophilia 438; assay: Agar dilution MIC, Antibiotic Spectrum of Nebramycin VII; type: cell-based
Enterobacter cloacae EB8 = assay: as above; type: cell-based
[9] = test system: Staphylococcus aureus 3074; assay: as above; conditions: Staphylococcus aureus 3074, Penicillin G resistant strain
Providencia sp. 439 = assay: as above; type: cell-based
[10] = test system: Pseudomonas aeruginosa PS15; assay: as above; type: cell-based
Escherichia coli EC2 = assay: as above; type: cell-based
[11] = test system: Pseudomonas aeruginosa PS9; assay: as above; type: cell-based
[12] = test system: Pseudomonas aeruginosa PS34; assay: as above; type: cell-based
[13] = test system: Pseudomonas aeruginosa PI21; assay: as above; type: cell-based
Proteus rettgeri PR2 = assay: as above; type: cell-based
Proteus morganii PR15 = assay: Agar dilution MIC, Antibiotic Spectrum of Nebramycin VII; type: cell-based
[14] = test system: Pseudomonas aeruginosa PI37; assay: as above; type: cell-based
Solubility = type: physicochemical
[15] = test system: Pseudomonas solanacearum X185; type: cell-based; conditions: agar dilution
[16] = test system: Pseudomonas aeruginosa PS14; assay: Agar dilution MIC, Antibiotic Spectrum of Nebramycin VII; type: cell-based
[17] = test system: Pseudomonas aeruginosa PI27; assay: as above; type: cell-based
[18] = test system: Pseudomonas aeruginosa PI23; assay: as above; type: cell-based
[19] = test system: Pseudomonas aeruginosa PI12; assay: as above; type: cell-based
Escherichia coli EC8 = assay: as above; type: cell-based
[20] = test system: Streptococcus sp. (group D) 9960; assay: as above; type: cell-based
Proteus morganii PR1 = assay: as above; type: cell-based
Proteus rettgeri PR7 = assay: as above; type: cell-based
Pseudomonas cepacia 3189 = assay: as above; type: cell-based
Proteus vulgaris PR28 = assay: as above; type: cell-based
[21] = test system: Enterobacter aerogenes EB4; assay: as above; type: cell-based
Proteus mirabilis PR3 = assay: as above; type: cell-based
[22] = test system: Pseudomonas pseudomallei 121; type: cell-based; conditions: agar dilution

Compound: CN[C@@H]1[C@@H](O[C@H]2O[C@H](CO)[C@@H](N)[C@H](O)[C@H]2O)OC2C[C@@H](N)[C@@H](O[C@H]3[C@H](O)[C@@H](O)[C@H](N)C[C@@H]3N)OC2[C@@H]1O (some centres unmarked) [Nebramycin II]
- antibiotic activity against Pseudomonas species (Pseudomonas species): antibiotic activity

Compound: CN[C@@H]1[C@@H](O[C@H]2O[C@H](CO)[C@@H](N)[C@H](O)[C@H]2O)O[C@H]2[C@H](O)[C@@H](N)[C@@H](O[C@H]3[C@H](O)[C@@H](O)[C@H](N)C[C@@H]3N)O[C@@H]2[C@@H]1O [Nebramycin VII]
- Minimum Inhibitory Concentration (Proteus vulgaris PR27): 8 µg/mL
- Minimum Inhibitory Concentration (Pseudomonas cepacia 5629): 128 µg/mL
- Minimum Inhibitory Concentration [1]: 8 µg/mL
- Minimum Inhibitory Concentration [2]: 64 µg/mL
- Minimum Inhibitory Concentration [3]: 256 µg/mL
- Minimum Inhibitory Concentration (Enterobacter cloacae EB5): 8 µg/mL
- Minimum Inhibitory Concentration [4]: > 256 µg/mL
- Minimum Inhibitory Concentration (Proteus mirabilis PR11): 16 µg/mL
- Minimum Inhibitory Concentration [5]: 8 µg/mL
- Minimum Inhibitory Concentration [6]: 8 µg/mL
- Minimum Inhibitory Concentration [7]: 4 µg/mL
- Minimum Inhibitory Concentration (Serratia marcescens SE3): 8 µg/mL
- activity against the gram negative organisms (gram negative organisms): high degree of activity
- Minimum Inhibitory Concentration [8]: 16 µg/mL
- Minimum Inhibitory Concentration (Enterobacter cloacae EB8): 8 µg/mL
- Minimum Inhibitory Concentration [9]: 4 µg/mL
- Minimum Inhibitory Concentration (Providencia sp. 439): 32 µg/mL
- Minimum Inhibitory Concentration [10]: 8 µg/mL
- Minimum Inhibitory Concentration (Escherichia coli EC2): 16 µg/mL
- Minimum Inhibitory Concentration [11]: 16 µg/mL
- Minimum Inhibitory Concentration [12]: 4 µg/mL
- Minimum Inhibitory Concentration [13]: > 256 µg/mL
- Minimum Inhibitory Concentration (Proteus rettgeri PR2): 32 µg/mL
- toxicity (Toxicity in words): relatively non-toxic
- Minimum Inhibitory Concentration (Proteus morganii PR15): 32 µg/mL
- Minimum Inhibitory Concentration [14]: > 256 µg/mL
- solubility in the higher alcohols and most common organic solvents (Solubility; higher alcohols and most common organic solvents): substantially insoluble
- solubility in methanol (Solubility; methanol): slightly soluble
- solubility in water (Solubility; water): water soluble
- Minimum Inhibitory Concentration [15]: 4 µg/mL
- Minimum Inhibitory Concentration [16]: 8 µg/mL
- Minimum Inhibitory Concentration [17]: 64 µg/mL
- Minimum Inhibitory Concentration [18]: > 256 µg/mL
- Minimum Inhibitory Concentration [19]: 16 µg/mL
- Minimum Inhibitory Concentration (Escherichia coli EC8): 16 µg/mL
- Minimum Inhibitory Concentration [20]: 128 µg/mL
- Minimum Inhibitory Concentration (Proteus morganii PR1): 8 µg/mL
- Minimum Inhibitory Concentration (Proteus rettgeri PR7): 16 µg/mL
- Minimum Inhibitory Concentration (Pseudomonas cepacia 3189): 256 µg/mL
- Minimum Inhibitory Concentration (Proteus vulgaris PR28): 8 µg/mL
- Minimum Inhibitory Concentration [21]: 8 µg/mL
- Minimum Inhibitory Concentration (Proteus mirabilis PR3): 8 µg/mL
- Minimum Inhibitory Concentration [22]: 32 µg/mL
